Reference: patent US6753329B2, “Inhibitors of cyclin-dependent kinases, compositions and uses related thereto” (GPC Biotech Inc., priority 2001, dated 2004)
pIC50, pKd: −log10 of the molar value. Like-named read-outs stand apart in the source and are kept apart here.

Tests used:
CDK2/cyclinE [1] = biological target: T1, CDK2/cyclinE (Homo sapiens, UniProt P24941); assay: Cdk2/cyclin E inhibition, glutathione-sepharose capture assay; type: biochemical; design: made in house; host or cells: Sf9 insect cells; conditions: 50 μM ATP, GST-Rb substrate; read-out: K2/E
From the text: (§1) Enzymes: Cdc2/cyclin B was obtained from commercial sources. Cdk2/his-cyclin Eshort was expressed in Sf9 cells. Cdk2/cyclin A, cdk4/cyclin D1, and cdk6/cyclin D2 were expressed in Sf9 cells. Protein kinase A (catalytic subunit, from bovine heart) and protein kinase C (mixed isozymes from rat brain) were obtained from commercial sources.
(§2) Substrates: Histone H1 was from commercial sources. GST-Rb is glutathione-S-transferase fused to the N-terminal of residues 379-928 of the Rb protein.
(§3) Cdk2/cyclin E, Cdk4/cyclin D1, and Cdk6/cyclin D2 activity was determined using a glutathione-sepharose capture assay. The enzymes were expressed in Sf9 insect cells as heterodimers, and the substrate (GST-Rb) was glutathione-S-transferase fused to residues 379 to 928 of Rb retinoblastoma protein, expressed in E. coli. The assay solution contained 50 mM Tris.HCl, 10 mM MgCl2, 1 mM dithiothreitol, 50 μM adenosine triphosphate, 2 μCi [γ-^33P]adenosine triphosphate, 10% dimethylsulfoxide (from compounds), pH 7.5, 40 µg GST-Rb, and enzyme in a 100 μL volume. Compounds were added at various concentrations between 1 nM and 10 μM. The reaction was allowed to proceed for 15 min at 30° C. and was stopped by the addition of 70 μL of stop solution (237 mM disodium ethylenediamine tetraacetate, 105 mM adenosine triphosphate, pH 8.0). The GST-Rb was captured by binding to glutathione-sepharose bead (Amersham) for 110 min, and the suspension was filtered through a glass fiber filter. After washing the retained beads five time with phosphate-buffered saline containing 0.3% (w/v) Tween-20, the amount of ^33P incorporated was determined by scintillation counting after adding 100 μL scintillant. Relative activity was determined by dividing the amount of radioactivity incorporated in the presence of compound by the amount of radioactivity incorporated in a control experiment containing DMSO alone but no compound. The background radioactivity, determined in an experiment containing 50 mM disodium ethylenediamine tetraacetate in place of compound, was subtracted from all results before calculations.

Cdc2/cyclin B = biological target: T2, Cdc2/cyclin B (Homo sapiens, UniProt P06493); assay: Cdc2/cyclin B inhibition, TCA precipitation assay; type: biochemical; conditions: 50 μM ATP, Histone H1 substrate
T2 construct: purchased
Method: as §1
Assays: Cdc2/cyclinB activity was determined by measuring incorporation of radioactivity from adenosine [γ-^32P]triphosphate into Histone H1 using a TCA precipitation assay. Cdc2/cyclin B kinase and Histone H1 were obtained from commercial sources. The final assay solution contained 50 mM Tris.HCl, 10 mM MgCl2, 1 mM dithiothreitol, 50 μM adenosine triphosphate, 2 μCi ^32P, 10% dimethylsulfoxide (from compounds), pH 7.5, 20 μg Histone H1, 6 U enzyme in a 50 μL volume. Compounds were added at various concentrations between 1 nM and 10 μM. The reaction was started with the addition of enzyme, allowed to proceed for 20 min at 30° C., and stopped by the addition of 20 μL of stop solution (237 mM disodium ethylenediamine tetraacetate, 105 mM adenosine triphosphate, pH 8.0). The protein was precipitated by the addition of 35 μL 70% (w/v) trichloroacetic acid, and the precipitate was captured on a 96-well glass fiber filter plate (Millipore, Inc.), which had been wet with 25% (w/v) trichloroacetic acid. The filter was washed ten times with 25% (w/v) trichloroacetic acid, and the amount of incorporated ^32P was determined by scintillation counting after adding 100 μL scintillant (Microscint 20, Packard Instruments). Relative activity was determined by dividing the amount of radioactivity incorporated in the presence of compound by the amount of radioactivity incorporated in a control experiment containing DMSO alone but no compound. The background radioactivity, determined in an experiment containing 50 mM EDTA in place of compound, was subtracted from all results before calculations.
P=min+(max−min)(1/(1+(IC50/[I])^s)) (1)
where P=1—relative activity is relative inhibition, [I] is concentration of compound, max and min are the maximum and minimum relative inhibition (1 and 0, respectively) and s is the so-called Hill slope.

Cdk4/cyclin D1 = biological target: T3, Cdk4/cyclin D1 (Homo sapiens, UniProt P11802); assay: Cdk4/cyclin D1 inhibition, glutathione-sepharose capture assay; type: biochemical; conditions: read-out: K4/D1
T3 construct: made in house; host or cells: Sf9 insect cells
From the text: as §1, §2, §3

Cdk2/cyclin A = biological target: T4, Cdk2/cyclin A (Homo sapiens, UniProt P24941); assay: Cdk2/cyclin A inhibition assay; type: biochemical; conditions: read-out: K2/A
T4 construct: made in house; host or cells: Sf9 cells
From the text: as §1

Cdk6/cyclin D2 = biological target: T5, Cdk6/cyclin D2 (Homo sapiens, UniProt Q00534); assay: Cdk6/cyclin D2 inhibition, glutathione-sepharose capture assay; type: biochemical; conditions: 50 μM ATP, GST-Rb substrate; read-out: K6/D2
T5 construct: made in house; host or cells: Sf9 insect cells
From the text: as §1, §2, §3

[2] = biological target: T6, Protein kinase A (catalytic subunit, from bovine heart) (Bos taurus, UniProt P00517); assay: Protein kinase A inhibition, TCA precipitation assay; type: biochemical; conditions: 12 μM ATP, Histone H1; read-out: PKA
T6 construct: Protein kinase A (catalytic subunit, from bovine heart); purchased; host or cells: bovine heart
Method: as §1
Protein kinase C and protein kinase A were assayed using a TCA precipitation assay with Histone H1 as a substrate. For protein kinase A, the final assay contained 50 mM Tris, 10 mM MgCl2, 1 mM dithiothreitol, pH 7.5, 12 μM adenosine triphosphate, 10% (v/v) dimethylsulfoxide (from compounds), 20 μg Histone H1, 2 μCi [γ-^32P] adenosine triphosphate, 0.2 U protein kinase A in a 100 μL assay. A protein kinase C assay contained 50 mM Tris, 10 mM MgCl2, 1 mM dithiothreitol, 0.8 mM CaCl2, pH 7.5, 5 μM adenosine triphosphate, 10% (v/v) dimethylsulfoxide (from compounds), 20 μg Histone H1, 2 μCi [γ-^32P] adenosine triphosphate, 0.01 U protein. kinase C in a 50 μL assay. The assays were started by the addition of enzyme, allowed to react for 10 min at 30° C., and stopped by adding 0.4 volumes of 237 mM disodium ethylenediamine tetraacetate, 105 mM adenosine triphosphate, pH 8.0. The protein was precipitated from the stopped reaction by adding 0.5 volume 75% (w/v) trichloroacetic acid and captured by filtering through a 96-well glass fiber filtration apparatus (Millipore). The filters were washed ten times with 25% (w/v) trichloroacetic acid, and the amount of incorporated [^32P]phosphate was determined by adding 100 μl Microscint and scintillation counting.

c-Abl = c-Abl (Homo sapiens, UniProt P00519); assay: c-Abl inhibition; type: biochemical
CDK2/cyclinE [3] = biological target: T1, CDK2/cyclinE; assay: BIACORE SPR binding of CDK2/cyclinE to compound-loaded CM5 chip; conditions: 22° C., compound coupled to CM5 chip, Langmuir 1:1 model
Method: The affinity of chemical compounds to their corresponding binding partners may be determined, for example, using a BIACORE™ assay system (Biacore AB, Uppsala, SE). Other systems yielding a qualitatively similar result, such as, for example, those developed by Affinity Sensors (Cambridge, UK), will be readily apparent to those skilled in the art.
In a representative procedure, the binding of Compound R to its known binding partners CDK2/cyclinE was analyzed. The analysis was performed on a BLACORE 2000 SPR-Biosensor at 22° C. in a running buffer containing 20 mM HEPES (pH 7.4), 150 mM NaCl, 1 mM DTT and 0.005% Tween 20 (protein grade, Calbiochem). A 10 μM solution of Compound R was coupled at pH 8.0 to the dextrane-surface of a CM5 sensor-chip (research grade) via amide coupling chemistry. […] The association and dissociation of the CDK2/cyclinE complex onto the CM5-Compound R-loaded chip surface was measured at a flow rate of 30 μl/min. […]
The data were analyzed using the Bioevaluation software version 3.1 (Biacore AB, Uppsala, SE). […] The association and dissociation rates were determined separately or globally using a Langmuir 1:1 binding model. The affinities (KD) were calculated using the equation: […]

T5 sequence (Q00534 whole entry, species assumed): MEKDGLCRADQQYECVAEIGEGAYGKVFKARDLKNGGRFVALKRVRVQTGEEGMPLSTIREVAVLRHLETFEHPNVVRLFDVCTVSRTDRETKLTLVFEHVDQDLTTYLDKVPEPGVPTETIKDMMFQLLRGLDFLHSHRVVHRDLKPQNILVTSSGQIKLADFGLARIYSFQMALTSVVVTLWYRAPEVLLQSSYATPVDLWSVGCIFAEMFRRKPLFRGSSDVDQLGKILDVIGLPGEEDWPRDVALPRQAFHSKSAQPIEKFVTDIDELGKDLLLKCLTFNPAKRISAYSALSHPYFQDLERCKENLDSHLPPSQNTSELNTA
T5 sequence (P30279 whole entry partner, species assumed): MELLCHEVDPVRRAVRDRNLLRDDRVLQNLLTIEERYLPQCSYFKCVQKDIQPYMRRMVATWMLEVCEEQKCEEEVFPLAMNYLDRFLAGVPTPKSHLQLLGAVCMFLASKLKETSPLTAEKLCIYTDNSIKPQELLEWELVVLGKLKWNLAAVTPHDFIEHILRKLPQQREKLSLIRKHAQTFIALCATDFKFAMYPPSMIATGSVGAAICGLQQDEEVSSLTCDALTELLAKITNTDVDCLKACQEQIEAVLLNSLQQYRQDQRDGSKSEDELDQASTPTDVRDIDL
c-Abl, sequence (P00519 whole entry): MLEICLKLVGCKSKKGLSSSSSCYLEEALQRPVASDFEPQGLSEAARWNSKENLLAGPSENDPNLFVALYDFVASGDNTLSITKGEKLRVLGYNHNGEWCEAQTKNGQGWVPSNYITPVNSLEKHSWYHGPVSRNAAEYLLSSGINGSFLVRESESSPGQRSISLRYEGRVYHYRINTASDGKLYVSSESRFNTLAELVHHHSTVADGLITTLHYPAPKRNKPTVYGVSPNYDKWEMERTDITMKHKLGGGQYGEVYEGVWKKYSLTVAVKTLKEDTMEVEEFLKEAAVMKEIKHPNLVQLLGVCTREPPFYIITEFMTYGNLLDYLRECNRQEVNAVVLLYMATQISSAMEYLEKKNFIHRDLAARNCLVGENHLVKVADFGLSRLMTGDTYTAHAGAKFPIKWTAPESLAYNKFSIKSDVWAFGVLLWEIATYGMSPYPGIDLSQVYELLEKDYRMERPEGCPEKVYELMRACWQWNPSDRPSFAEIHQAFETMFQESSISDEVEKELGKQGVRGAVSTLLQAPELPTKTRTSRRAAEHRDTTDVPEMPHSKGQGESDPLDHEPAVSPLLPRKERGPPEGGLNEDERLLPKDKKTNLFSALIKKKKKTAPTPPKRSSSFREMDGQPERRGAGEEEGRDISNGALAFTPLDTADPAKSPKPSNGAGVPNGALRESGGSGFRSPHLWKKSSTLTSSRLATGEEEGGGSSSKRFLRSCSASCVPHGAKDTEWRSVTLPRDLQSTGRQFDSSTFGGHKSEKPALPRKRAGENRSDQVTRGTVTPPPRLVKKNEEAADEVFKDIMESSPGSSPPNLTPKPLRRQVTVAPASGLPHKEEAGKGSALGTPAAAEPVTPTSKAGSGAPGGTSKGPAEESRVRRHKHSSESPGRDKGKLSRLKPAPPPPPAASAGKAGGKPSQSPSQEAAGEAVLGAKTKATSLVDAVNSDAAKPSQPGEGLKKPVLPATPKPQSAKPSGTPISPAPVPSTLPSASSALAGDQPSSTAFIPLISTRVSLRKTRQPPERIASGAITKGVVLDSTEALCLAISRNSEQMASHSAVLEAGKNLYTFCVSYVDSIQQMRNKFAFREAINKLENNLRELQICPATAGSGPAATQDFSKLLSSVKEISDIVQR
T3 sequence (P11802 whole entry, species assumed): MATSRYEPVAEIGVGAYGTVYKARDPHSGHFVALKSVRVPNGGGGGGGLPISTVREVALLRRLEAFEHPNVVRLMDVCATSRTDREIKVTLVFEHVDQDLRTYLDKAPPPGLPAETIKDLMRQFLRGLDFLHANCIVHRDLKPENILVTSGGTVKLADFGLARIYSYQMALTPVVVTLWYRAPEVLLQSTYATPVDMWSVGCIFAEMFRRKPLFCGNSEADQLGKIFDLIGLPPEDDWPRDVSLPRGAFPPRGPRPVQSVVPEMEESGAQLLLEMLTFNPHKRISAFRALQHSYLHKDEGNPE
T3 sequence (P24385 whole entry partner, species assumed): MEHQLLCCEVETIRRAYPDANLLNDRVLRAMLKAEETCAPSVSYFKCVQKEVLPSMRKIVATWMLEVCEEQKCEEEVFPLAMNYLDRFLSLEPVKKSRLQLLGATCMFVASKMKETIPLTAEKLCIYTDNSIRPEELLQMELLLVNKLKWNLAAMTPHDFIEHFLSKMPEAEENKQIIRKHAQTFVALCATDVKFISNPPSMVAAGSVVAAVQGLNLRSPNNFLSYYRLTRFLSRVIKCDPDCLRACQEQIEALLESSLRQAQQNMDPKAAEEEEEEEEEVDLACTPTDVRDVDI
T2 sequence (P06493 whole entry, species assumed): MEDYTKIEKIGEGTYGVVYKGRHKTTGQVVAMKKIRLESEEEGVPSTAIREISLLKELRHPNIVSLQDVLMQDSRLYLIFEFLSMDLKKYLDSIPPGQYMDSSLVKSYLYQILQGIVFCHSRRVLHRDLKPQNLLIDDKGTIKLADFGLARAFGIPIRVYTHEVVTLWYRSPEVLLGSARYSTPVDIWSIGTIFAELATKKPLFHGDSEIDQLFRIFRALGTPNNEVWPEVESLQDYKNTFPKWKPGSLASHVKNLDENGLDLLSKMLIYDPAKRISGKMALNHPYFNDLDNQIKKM
T2 sequence (P14635 whole entry partner, species assumed): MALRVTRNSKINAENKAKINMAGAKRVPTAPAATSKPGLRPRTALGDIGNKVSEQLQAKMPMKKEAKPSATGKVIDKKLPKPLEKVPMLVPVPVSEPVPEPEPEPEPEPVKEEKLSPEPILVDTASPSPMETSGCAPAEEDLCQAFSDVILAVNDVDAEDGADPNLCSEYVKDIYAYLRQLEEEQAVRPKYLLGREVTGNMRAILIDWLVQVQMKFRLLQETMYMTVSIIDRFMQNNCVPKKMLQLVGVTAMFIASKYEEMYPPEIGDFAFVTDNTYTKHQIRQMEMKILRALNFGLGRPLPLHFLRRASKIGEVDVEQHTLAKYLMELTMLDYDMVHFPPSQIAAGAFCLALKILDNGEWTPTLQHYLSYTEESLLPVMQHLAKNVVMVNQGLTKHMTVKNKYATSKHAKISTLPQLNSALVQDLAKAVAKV

Row | pKd (CDK2/cyclinE [3]) | Structure (SMILES) | pIC50 (CDK2/cyclinE [1]) | pIC50 (Cdc2/cyclin B) | pIC50 (Cdk4/cyclin D1; 50 μM ATP, GST-Rb substrate) | pIC50 (Cdk4/cyclin D1) | pIC50 (Cdk2/cyclin A) | pIC50 (Cdk6/cyclin D2) | pIC50 [2] | pIC50 (c-Abl)
1 | – | CC(C)c1nn(-c2c(Cl)cc(Cl)cc2Cl)c2nc(Cc3ccc(OCCN4CCOCC4)cc3)[nH]c(=O)c12 [A] | > 7.00 | > 6.00 | > 6.00 | > 6.00 | > 7.00 | > 6.00 | – | –
2 | – | CC(C)c1nn(-c2c(Cl)cccc2Cl)c2nc(Cc3ccc(OP(=O)(O)O)cc3)[nH]c(=O)c12 [B] | > 8.00 | > 7.00 | > 5.00 | – | > 7.00 | – | – | –
3 | – | CC(C)c1nn(-c2c(Cl)cccc2Cl)c2nc(Cc3ccc(O)c(CN4CCN(C(C)C)CC4)c3)[nH]c(=O)c12 [Compound C] | > 7.00 | > 6.00 | > 6.00 | – | > 7.00 | – | < 5.00 | < 5.00
4 | – | O=C(Nc1cccc2c1C(=O)c1c-2n[nH]c1-c1ccc(OCCN2CCCC2)cc1)NN1CCOCC1 [Compound I] | > 7.00 | > 7.00 | > 8.00 | – | > 7.00 | – | – | –
5 | – | Cc1cc(-c2[nH]nc3c2C(=O)c2c(NC(=O)NN4CCN(C)CC4)cccc2-3)ccc1OCCN1CCCC1 [Compound P] | > 7.00 | – | – | – | – | – | – | –
6 | 8.10 | CC(C)c1nn(-c2c(Cl)cc(Cl)cc2Cl)c2nc(Cc3ccc(OC(C)(C)C(=O)NCCOCCOCCOCCOCCOCCN)cc3)[nH]c(=O)c12 [Compound R] | – | – | – | – | – | – | – | –
7 | – | CC(C)c1nn(-c2c(Cl)cc(Cl)cc2Cl)c2nc(Cc3ccc(NS(=O)(=O)CCCN4CCOCC4)cc3)[nH]c(=O)c12 [D] | > 7.00 | > 6.00 | > 6.00 | – | > 7.00 | – | – | –
8 | – | CC(C)N1CCN(CCOc2ccc(-c3[nH]nc4c3C(=O)c3c(NC(=O)NN5CCOCC5)cccc3-4)cc2)CC1 [E] | > 8.00 | > 7.00 | > 8.00 | > 8.00 | > 8.00 | > 8.00 | > 5.00 | > 5.00
9 | – | CN1CCN(NC(=O)Nc2cccc3c2C(=O)c2c-3n[nH]c2-c2ccc(OCCN3CCCC3)cc2)CC1 [F] | > 7.00 | > 7.00 | > 8.00 | > 8.00 | > 7.00 | > 8.00 | – | –
10 | – | CCCN(CCOc1ccc(-c2[nH]nc3c2C(=O)c2c(NC(=O)NN4CCOCC4)cccc2-3)cc1)CC1CC1 [G] | > 7.00 | > 7.00 | > 8.00 | – | > 7.00 | – | < 5.00 | < 5.00
11 | – | O=C(Nc1cccc2c1C(=O)c1c-2n[nH]c1-c1ccc(OCCN(CCO)CCO)cc1)NN1CCOCC1 [H] | > 7.00 | > 7.00 | > 7.00 | – | > 7.00 | – | – | –
12 | – | O=C(Nc1cccc2c1C(=O)c1c-2n[nH]c1-c1ccc(OP(=O)(O)O)cc1)NN1CCOCC1 [J] | > 7.00 | – | – | – | – | – | – | –
13 | – | CC(C)N1CCN(Cc2cc(-c3[nH]nc4c3C(=O)c3c(NC(=O)NN5CCOCC5)cccc3-4)ccc2O)CC1 [K] | > 7.00 | – | – | – | – | – | – | –
14 | – | Cc1cc(OCCN2CCCC2)ccc1-c1[nH]nc2c1C(=O)c1c(NC(=O)NN3CCN(C)CC3)cccc1-2 [L] | > 7.00 | > 7.00 | > 7.00 | – | – | – | – | –
15 | – | CN1CCN(NC(=O)Nc2cccc3c2C(=O)c2c-3n[nH]c2-c2ccc(OCCN3CCC[C@H]3CO)cc2)CC1 [M] | > 7.00 | – | – | – | – | – | – | –
16 | – | CN1CCN(NC(=O)Nc2cccc3c2C(=O)c2c-3n[nH]c2-c2ccc(OCCN(CCO)CCO)cc2)CC1 [N] | > 7.00 | > 8.00 | – | – | – | – | – | –
17 | – | CN1CCN(NC(=O)Nc2cccc3c2C(=O)c2c-3n[nH]c2-c2ccc(OCCN3CC[C@H](O)C3)cc2)CC1 [O] | > 7.00 | – | – | – | – | – | – | –
18 | – | CN1CCN(NC(=O)Nc2cccc3c2C(=O)c2c-3n[nH]c2-c2ccc(OCCN3CCOCC3)cc2)CC1 [Q] | > 8.00 | > 7.00 | > 8.00 | > 7.00 | > 7.00 | > 7.00 | – | –
